Patent publication US20120232000A1, “METHODS AND COMPOSITIONS FOR PROMOTING REGENERATION BY INCREASING INTRACELLULAR SODIUM CONCENTRATION” (priority 2009, published 2012)
“Also recorded” adds a separate entry of the source.

Experiments:
Assay type in all cases: in vivo, Xenopus laevis
NaV1.2 protein = test: Immunohistochemistry of NaV1.2 protein in the regeneration bud
Source text: In order to better understand the role of NaV1.2, we examined its potential relationships with known regenerative pathways. First, we investigated the pathways potentially regulating NaV1.2 expression. […] However, in amputated tails treated with Concanamycin, a specific inhibitor of V-ATPase activity (Huss et al., 2002) that blocks regeneration (Adams et al., 2007), the expression of NaV1.2 protein was absent at 24 and 48 hpa (FIGS. 4A-4C). […] We next examined NaV1.2 protein expression during the refractory stages, an endogenous period during development in which tadpoles temporarily lose the ability of caudal regeneration (Beck et al., 2003). NaV1.2 protein was not detected in 24-hour tail stumps amputated during this non-regenerative state (FIG. 4D).
(§1) Xenopus embryos were fixed overnight in MEMFA, heated for 2 hrs at 65° C. in 50% formamide (to inactivate endogenous alkaline phosphatases), permeabilized in PBTr+0.1% Triton X100 for 30 min, and processed for immunohistochemistry using alkaline phosphatase secondary antibody (Levin, 2004) until signal was optimal and background minimal (usually 12 hrs). The expression profiles represent consensus patterns obtained from the analysis of 8-12 embryos at each stage. Pan-anti-NaV (Sigma S-8809), anti-acetylated a-tubulin (Sigma #T6793), and anti-phospho-H3 (Upstate #05-598) antibodies were used at 1:1000.

[1] = system: Na^+ influx into the regeneration bud; test: Imaging of sodium flux with CoroNa Green indicator dye
Procedure: NaV1.2 is a membrane-bound Na^+ transporter that regulates the influx of Na^+ into cells (Yu and Catterall, 2003). Thus, we examined the functional consequences of Na^+ transport in regeneration using MS-222. […] In intact tails, a few randomly distributed cells appear positive for the CoroNa Green signal relative to the majority of the tail population (FIG. 3A). […] When the amputated tails were treated with the NaV inhibitor, MS-222, the CoroNa Green signal was abolished (FIG. 3C, p<0.02), confirming that inhibition of NaV1.2 function abrogates Na^+ influx into the bud.
(§2) At 23 hpa, tadpoles were incubated in 90 μM of CoroNa Green indicator dye (Invitrogen) in 0.1×MMR for 45 minutes and washed twice in 0.1×MMR+30 uM BTS (to immobilize tadpole movement). At 24 hpa, the CoroNa Green signal was excited at […] and fluorescence emission data was collected at […]. Data was analyzed using IPLab software. For induction of Na^+ current, 0.1×MMR was supplemented with sodium gluconate (Sigma) to increase the Na^+ concentration to 90 mM. For refractory period analysis, tails were amputated at st. 47, at 18 hpa, and animals were treated with or without 90 mM Na^+ and 20 μM monensin (Sigma) in 0.1×MMR with 90 μM CoroNa Green for 45 minutes and washed twice in 0.1×MMR+50 uM BTS. Imaging of Vmem using DiBAC4(3) (Invitrogen) was performed exactly as described in (Adams et al., 2007).

Xenopus tadpoles = test: Observation of overall development and movement of treated animals; conditions: during pharmacological treatment in the tail assay
Source text: (§3) To characterize the temporal requirement of NaV1.2 function during regeneration, we looked to utilize pharmacological inhibitors of NaV1.2 that will enable us to vary the timing of the functional blockade. First, we determined whether chemical inhibition of NaV1.2 activity recapitulates its loss-of-function phenotype during regeneration. MS-222 (also known as tricaine) is a well-known inhibitor of VGSCs (Hedrick and Winmill, 2003) that blocks inward Na^+ currents (Frazier and Narahashi, 1975). […]. […] Importantly, the μM concentrations used for the tail assays were approximately ten-fold lower than what is usually used for amphibian anesthesia (generally in the mM range). Similar to the NaV1.2 RNAi experiment, the overall development and movement of the animals were normal during pharmacological treatment, and had no effect on primary tail formation during early embryogenesis. We conclude that NaV1.2 function is specifically required for regeneration, and that both pharmacological and molecular loss-of-function to selectively reveal the importance of NaV1.2.

Msx1 = test: RNA in situ hybridization of Msx1 in the regeneration bud; conditions: 48 hpa, MS-222 after amputation
Source text: (§4) RNA expression of Notch, Msx1, and BMP components can be observed after 24 hpa in the regenerating tail tissues. We performed in situ hybridization using gene-specific RNA probes to examine the expression patterns of Notch and Msx1 in the regeneration bud after treatment with MS-222. In wild-type regeneration buds at 48 hpa, Notch1 is normally expressed in the neural ampulla and in the mesenchymal region of the regeneration bud (FIGS. 4F and 4H). […] At 48 hpa, Msx1 was expressed in the neural ampulla and at the epithelial edge of the regenerating tail tip (FIGS. 4J and 4L). When NaV activity was blocked, Msx1 expression was abolished (FIGS. 4K and 4M).
(§5) Embryos were fixed in MEMFA (Sive et al., 2000) and dehydrated in methanol. In situ hybridization was carried out according to standard protocols (Harland, 1991) with probes to: NaV1.2 (AY121368), NaV1.5 (Armisen et al., 2002), Notch1 (Coffman et al., 1990), and Msx1 (Feledy et al., 1999).

[2] = system: H3P-positive (mitotic) cells; test: Anti-H3P immunohistochemistry of mitotic cells in amputated tails; conditions: 48 hpa, versus control siblings
Source text: To understand the cellular basis for regenerative failure in animals with loss of NaV1.2 function, we examined proliferation in MS-222-treated amputated tails. During development, mitotic cells are observed to be randomly located in the growing tail. […]. We quantified the number and distribution of proliferating cells in regenerating tails at 48 hpa using an antibody to phosphorylated Histone 3B (H3P), a marker of the G2/M transition of the cell cycle that identifies mitotic cells in Xenopus and many other systems (Adams et al., 2007; Saka and Smith, 2001). […]. Many H3P-positive cells are seen in the wild-type regeneration bud (FIG. 3E) but very few are detected in MS-222 treated buds (FIG. 3F).
as §1

Notch1 = test: RNA in situ hybridization of Notch1 in the regeneration bud; conditions: 48 hpa, MS-222 after amputation
Source text: as §4, §5

regeneration bud = test: Apoptosis in the regeneration bud (data not shown); conditions: MS-222 after tail amputation
Source text: as §3

[3] = system: membrane voltage of regeneration bud cells; test: Imaging of membrane voltage with the voltage dye DiBAC4(3); conditions: 24 hpa, versus control
Source text: To gain a detailed mechanistic understanding of NaV1.2 activity, we examined the consequences of modulating Na^+ ion transport in the regenerating tail. During development, the intact tail is hyper-polarized with a few depolarized cells that are randomly distributed (Adams et al., 2007). However, after tail amputation, the presumptive regeneration bud becomes highly depolarized. […]. If the bud is polarized at this timepoint, then regeneration proceeds normally; if the bud remains depolarized (as when V-ATPase is inactivated, either during the refractory period or by Concanamycin), then regeneration fails. Because VGSC activity is also a well-known major determinant of a cell's membrane potential level, we hypothesized that loss of NaV1.2 activity could alter the membrane voltage state of the regeneration buds at 24 hpa.
as §2, with “47, at 18 hpa, and animals were treated with or without 90 mM Na^+ and 20 μM monensin (Sigma) in 0.1×MMR with 90 μM CoroNa Green for 45 minutes and washed twice in 0.1×MMR+50 uM BTS. Imaging of Vmem using DiBAC4(3) (Invitrogen) was performed exactly as described in (Adams et al., 2007).” left out

Delta = test: Expression level of Delta in the regeneration bud (data not shown); conditions: in the presence of MS-222, data not shown
axons of the regenerate = test: Acetylated α-tubulin staining of axons in tail regenerates; conditions: 72 hpa (3-day) tails, MS-222 treated
Source text: It has long been known that regenerative growth requires proper innervation (Singer, 1952, 1965). Thus, we asked whether NaV1.2 regulates neural regeneration by examining the neuronal pattern in the amputated tail of tadpoles treated with MS-222. In normal 3-day old tail regenerates, axons appear in bundles that grow and concentrate to the end of the regenerate, in a direction parallel to the anterior-posterior axis (FIG. 3G).
as §1

BMP4 = test: Expression level of BMP4 in the regeneration bud (data not shown); conditions: in the presence of MS-222, data not shown
Source text: as §4

[4] = system: Xenopus tail regeneration; test: Tail regeneration assay, tails amputated at stages 40-41, scored at 7 days; conditions: for tail regeneration: treatment after amputation at st. 40, 7 days
Procedure: Xenopus laevis larvae were cultured using standard protocols approved for the care of experimental organisms. Tails at stages 40-41, or stages 45-47 (refractory period) (Nieuwkoop and Faber, 1967) were amputated under a dissecting microscope using a scalpel blade at the midpoint between the anus and the tip. Tadpoles were cultured in (0.1×MMR±inhibitor) at 22° C. for 7 days and scored for tail regeneration. Drug experiments were carried out at least in duplicate.
To quantify and compare regeneration efficiency of tadpoles treated with different reagents, the “Regeneration Index” (RI) was determined. The RI evaluates the efficiency of regeneration for each treatment and allows for comparison of the effect of various treatments to controls.
Individual animals for each specific treatment were each scored as follows:
Full: complete regeneration (indistinguishable from uncut controls).
Good: robust regeneration with minor defects (e.g., missing fin, curved axis).
Poor: poor regeneration (hypomorphic/defective regenerates).
For each treatment, the percentage of regenerates belonging to each category were calculated, and then multiplied by 3, 2, 1 or 0, respectively for, Full, Good, Poor and None. The resulting R1 for each condition tested ranges from 0 to 300, with 0 corresponding to no regeneration, and 300 for complete regeneration.
Xenopus laevis larvae were cultured via approved protocols (IACUC #M2008-08). Tails at stages 40-41, or stages 45-47 (refractory period) (Nieuwkoop and Faber, 1967) were amputated at the midpoint between the anus and the tip. Tadpoles were cultured in (0.1×MMR±reagent) at 22° C. for 7 days and scored for tail regeneration. […]

BMP2 = test: Expression level of BMP2 in the regeneration bud (data not shown); conditions: in the presence of MS-222, data not shown
Source text: as §4

[5] = system: Xenopus tail regeneration during the refractory period; test: Tail regeneration assay, tails amputated during the refractory period (stages 45-47)
[6] = 24 hpa regeneration bud, MS-222 treated

## C/C=C/[C@H]1O[C@@](O)([C@@H](C)[C@H](O)[C@H](C)[C@H]2OC(=O)/C(OC)=C/C(C)=C/[C@@H](C)[C@@H](O)[C@@H](CC)[C@@H](O)[C@H](C)C/C(C)=C/C=C/[C@@H]2OC)C[C@@H](O)[C@@H]1C [Concanamycin]
NaV1.2 protein; 24 hpa
  NaV1.2 protein expression in the regeneration bud: absent
NaV1.2 protein; 48 hpa
  NaV1.2 protein expression in the regeneration bud: absent

## CCOC(=O)c1cccc(N)c1.CS(=O)(=O)O [MS-222]
[1]; [6]
  CoroNa Green signal / Na^+ entry into the bud: abolished; also recorded: blocks Na^+ entry into the bud
  decrease in CoroNa Green signal versus control buds: 70%
Xenopus tadpoles
  overall development and movement of the animals: normal
Msx1
  Msx1 RNA expression: abolished; also recorded: absent
[2]
  decrease in the number of mitotic cells in the regeneration bud region: 90%
Notch1
  Notch1 RNA expression: greatly reduced; also recorded: greatly down-regulated and mis-localized
Regeneration bud
  apoptosis in the bud: did not induce significant apoptosis
[3]
  change of membrane voltage in regeneration bud cells: did not observe any changes in membrane voltage
Delta
  level of Delta: greatly reduced
Axons of the regenerate
  axon pattern and quantity in the regenerate: axons to extend circumferentially along the edge of the regeneration bud; also recorded: overall quantity of neurons appeared to be reduced
BMP4
  level of BMP4: greatly reduced
[4]; MS-222 (250 μM per FIG. 2B) immediately after tail amputation, scored at 7 days, RI 0-300, controls RI=265
  Regeneration Index (RI): 62
[4]; MS-222 added at 48 hpa, after regenerative outgrowth has begun
  effect on regeneration: no effect
[4]; MS-222 for the first 48 hpa
  tails that failed to regenerate: 78%
[4]; MS-222 for the first 24 hours post amputation
  tadpoles in which tail regeneration was prevented: 45%
[4]; MS-222 through the entire 7 days of the assay
  tails with inhibited regeneration: 82%
[4]
  tail regeneration: failed to regenerate; also recorded: inhibition of regeneration is dosage-dependent
BMP2
  level of BMP2: greatly reduced

## CN[C@@H]1C[C@H]2O[C@@](C)([C@@H]1OC)n1c3ccccc3c3c4c(c5c6ccccc6n2c5c31)C(=O)NC4 [Staurosporine]
Xenopus tadpoles
  overall development and movement of the animals: otherwise unaffected
[4]; 10 nM STS on amputated tails
  regenerative ability relative to controls: 28 % of controls
[4]
  tail regeneration: strong reduction

## CC[C@@]1([C@@H]2O[C@@H]([C@H]3O[C@@](O)(CO)[C@H](C)C[C@@H]3C)C[C@@H]2C)CC[C@H]([C@]2(C)CC[C@]3(C[C@H](O)[C@@H](C)[C@@H]([C@@H](C)[C@@H](OC)[C@H](C)C(=O)O)O3)O2)O1 [monensin]
[1]; refractory tails at 19 hpa, after one hour of 20 uM monensin in 90 mM Na^+ medium
  CoroNa Green signal at the amputation site: strong CoroNa Green fluorescence; also recorded: significantly stronger CoroNa Green signal
[5]; 20 uM monensin in medium containing 90 mM Na^+ for one hour at 18 hpa, refractory controls 11.5, n=44
  Regeneration Index (RI): 59.1
[5]; 20 μM monensin with 90 mM Na^+, 1 hour at 18 hpa
  increase of regeneration over the control: 3 fold
[5]; 20 μM monensin with 90 mM Na^+, 1 hour at 18 hpa, 7 dpa, controls 11%
  tadpoles with induced regeneration: 36%
[5]; 20 μM monensin with 90 mM Na^+, 1 hour at 18 hpa, share of the regenerating tails
  regenerated tails showing good to full regeneration: 45%
[5]; monensin alone, without high extracellular Na^+, data not shown
  regenerative ability: did not improve regenerative ability

## insulin
[5]; insulin at 0 hours post amputation, assayed at 7 days, control 16%
  animals showing good or full regeneration: 39%
[5]; insulin at 0 hours post amputation, assayed at 7 days, control RI=62, RI of 300 = full regeneration
  Regeneration Index (RI): 118
